# Source: US8796289B2 (AbbVie Inc., priority 2011, dated 2014)
# Target: GST-tagged-Wee1 kinase (Homo sapiens, UniProt P30291)
# Assay: Wee1 time-resolved fluorescence equilibrium binding assay (displacement of Oregon Green-labeled ATP-competitive kinase probe)
# Method: Wee1 kinase was assayed using a time-resolved fluorescence equilibrium binding assay monitoring displacement of a rapidly reversible Oregon Green-labeled ATP-competitive kinase probe (N-(2-(2-(2-(4-(4-(5-chloro-4-(2-(1-hydroxycyclobutyl)thiazol-5-yl)-1H-pyrrolo[2,3-b]pyridin-2-yl)phenyl)piperazin-1-yl)ethoxy)ethoxy)ethyl)-2′,7′-difluoro-3′,6′-dihydroxy-3-oxo-3H-spiro[isobenzofuran-1,9′-xanthene]-5-carboxamide) by competitive Wee1 inhibitors.
# Chain of GST-tagged-Wee1 kinase (P30291 whole entry): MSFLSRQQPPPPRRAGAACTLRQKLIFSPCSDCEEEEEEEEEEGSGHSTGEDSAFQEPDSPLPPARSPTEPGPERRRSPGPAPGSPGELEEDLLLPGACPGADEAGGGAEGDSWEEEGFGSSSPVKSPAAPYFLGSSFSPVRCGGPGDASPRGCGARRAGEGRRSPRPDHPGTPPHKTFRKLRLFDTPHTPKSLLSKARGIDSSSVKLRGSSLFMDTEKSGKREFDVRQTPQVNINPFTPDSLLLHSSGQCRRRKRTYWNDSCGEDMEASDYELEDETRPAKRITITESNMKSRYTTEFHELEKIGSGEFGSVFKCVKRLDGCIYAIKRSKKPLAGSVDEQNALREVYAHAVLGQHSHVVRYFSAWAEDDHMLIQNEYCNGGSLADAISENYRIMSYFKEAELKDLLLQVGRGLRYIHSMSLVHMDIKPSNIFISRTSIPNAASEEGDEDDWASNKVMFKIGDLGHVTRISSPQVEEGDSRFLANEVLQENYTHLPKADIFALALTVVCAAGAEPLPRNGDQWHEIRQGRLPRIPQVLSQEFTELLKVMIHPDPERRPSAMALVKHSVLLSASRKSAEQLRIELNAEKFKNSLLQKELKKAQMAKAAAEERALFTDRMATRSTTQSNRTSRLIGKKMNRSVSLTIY
row,Ki [nM],SMILES
1,0.6,"CN1Cc2cc(Nc3ncc4c(=O)n(-c5c(Cl)cccc5Cl)nc(-c5ccccn5)c4n3)ccc2C2(CC2)C1 [Example 104, 6-(2,6-dichlorophenyl)-2-[(2′-methyl-2′,3′-dihydro-1′H-spiro[cyclopropane-1,4′-isoquinolin]-7′-yl)amino]-8-(pyridin-2-yl)pyrimido[4,5-d]pyridazin-5(6H)-one]"
2,4,"CN1CCN(c2ccc(Nc3ncc4c(=O)n(-c5c(Cl)cccc5Cl)nc(C5CCCNC5)c4n3)cc2)CC1 (stereo not shown) [Example 105, 6-(2,6-dichlorophenyl)-2-{[4-(4-methylpiperazin-1-yl)phenyl]amino}-8-(piperidin-3-yl)pyrimido[4,5-d]pyridazin-5(6H)-one]"
3,5,"Cc1ccccc1-n1nc(-c2ccco2)c2nc(Nc3ccc(CN(C)C)cc3)ncc2c1=O [Example 106, 2-({4-[(dimethylamino)methyl]phenyl}amino)-8-(2-furyl)-6-(2-methylphenyl)pyrimido[4,5-d]pyridazin-5(6H)-one]"
4,1,"Cc1ccccc1-n1nc(-c2ccco2)c2nc(Nc3ccc(N4CCN(C(C)C)CC4)cc3)ncc2c1=O [Example 107, 8-(2-furyl)-2-{[4-(4-isopropylpiperazin-1-yl)phenyl]amino}-6-(2-methylphenyl)pyrimido[4,5-d]pyridazin-5(6H)-one]"
5,150,"Cc1ccccc1-n1nc(-c2ccco2)c2nc(Nc3ccc(S(=O)(=O)N4CCOCC4)cc3)ncc2c1=O [Example 108, 8-(2-furyl)-6-(2-methylphenyl)-2-{[4-(morpholin-4-ylsulfonyl)phenyl]amino}pyrimido[4,5-d]pyridazin-5(6H)-one]"
6,> 3140,"Cc1ccccc1-n1nc(-c2ccccc2)c2nc(Nc3ccc(S(=O)(=O)N4CCOCC4)cc3)ncc2c1=O [Example 109, 6-(2-methylphenyl)-2-{[4-(morpholin-4-ylsulfonyl)phenyl]amino}-8-phenylpyrimido[4,5-d]pyridazin-5(6H)-one]"
7,> 3140,"C=CCn1nc(-c2ccccc2)c2nc(Nc3ccc(S(=O)(=O)N4CCOCC4)cc3)ncc2c1=O [Example 110, 6-allyl-2-{[4-(morpholin-4-ylsulfonyl)phenyl]amino}-8-phenylpyrimido[4,5-d]pyridazin-5(6H)-one]"
8,2.5,"Cc1ccccc1-n1nc(-c2ccccc2)c2nc(Nc3ccc(CN(C)C)cc3)ncc2c1=O [Example 111, 2-({4-[(dimethylamino)methyl]phenyl}amino)-6-(2-methylphenyl)-8-phenylpyrimido[4,5-d]pyridazin-5(6H)-one]"
9,14,"C=CCn1nc(-c2ccco2)c2nc(Nc3ccc(N4CCN(C(C)C)CC4)cc3)ncc2c1=O [Example 112, 6-allyl-8-(2-furyl)-2-{[4-(4-isopropylpiperazin-1-yl)phenyl]amino}pyrimido[4,5-d]pyridazin-5(6H)-one]"
10,0.4,"COc1cc(Nc2ncc3c(=O)n(-c4ccccc4C)nc(-c4ccccc4)c3n2)ccc1N1CCN(C(C)C)CC1 [Example 113, 2-{[4-(4-isopropylpiperazin-1-yl)-3-methoxyphenyl]amino}-6-(2-methylphenyl)-8-phenylpyrimido[4,5-d]pyridazin-5(6H)-one]"
11,3,"C=CCn1nc(-c2ccccc2)c2nc(Nc3ccc(N4CCN(C(C)C)CC4)c(OC)c3)ncc2c1=O [Example 114, 6-allyl-2-{[4-(4-isopropylpiperazin-1-yl)-3-methoxyphenyl]amino}-8-phenylpyrimido[4,5-d]pyridazin-5(6H)-one]"
12,4,"C=CCn1nc(-c2ccccc2)c2nc(Nc3ccc(N4CCCN(C(C)C)CC4)c(C)c3)ncc2c1=O [Example 115, 6-allyl-2-{[4-(4-isopropyl-1,4-diazepan-1-yl)-3-methylphenyl]amino}-8-phenylpyrimido[4,5-d]pyridazin-5(6H)-one]"
13,0.4,"Cc1cc(Nc2ncc3c(=O)n(-c4ccccc4C)nc(-c4ccccc4)c3n2)ccc1N1CCCN(C(C)C)CC1 [Example 116, 2-{[4-(4-isopropyl-1,4-diazepan-1-yl)-3-methylphenyl]amino}-6-(2-methylphenyl)-8-phenylpyrimido[4,5-d]pyridazin-5(6H)-one]"
14,3,"C=CCn1nc(-c2cccs2)c2nc(Nc3ccc4c(c3)CN(C)CC43CC3)ncc2c1=O [Example 117, 6-allyl-2-[(2′-methyl-2′,3′-dihydro-1′H-spiro[cyclopropane-1,4′-isoquinolin]-7′-yl)amino]-8-(2-thienyl)pyrimido[4,5-d]pyridazin-5(6H)-one]"
15,1,"Cc1ccccc1-n1nc(-c2cccs2)c2nc(Nc3ccc(N4CCN(C(C)C)CC4)cc3)ncc2c1=O [Example 118, 2-{[4-(4-isopropylpiperazin-1-yl)phenyl]amino}-6-(2-methylphenyl)-8-(2-thienyl)pyrimido[4,5-d]pyridazin-5(6H)-one]"
16,1,"Cc1cc(Nc2ncc3c(=O)n(-c4ccccc4C)nc(-c4cccs4)c3n2)ccc1N1CCN(C(C)C)CC1 [Example 119, 2-{[4-(4-isopropylpiperazin-1-yl)-3-methylphenyl]amino}-6-(2-methylphenyl)-8-(2-thienyl)pyrimido[4,5-d]pyridazin-5(6H)-one]"

row,Ki [nM],SMILES
1,1,"Cc1cc(Nc2ncc3c(=O)n(-c4ccccc4C)nc(-c4cccs4)c3n2)ccc1N1CCCN(C(C)C)CC1 [Example 120, 2-{[4-(4-isopropyl-1,4-diazepan-1-yl)-3-methylphenyl]amino}-6-(2-methylphenyl)-8-(2-thienyl)pyrimido[4,5-d]pyridazin-5(6H)-one]"
2,3,"O=C1CCCN1c1ccc(Nc2ncc3c(=O)n(-c4ccccc4Cl)nc(-c4cccs4)c3n2)cc1 [Example 121, 6-(2-chlorophenyl)-2-{[4-(2-oxopyrrolidin-1-yl)phenyl]amino}-8-(2-thienyl)pyrimido[4,5-d]pyridazin-5(6H)-one]"
3,0.5,"CC(C)N1CCN(c2ccc(Nc3ncc4c(=O)n(-c5ccccc5Cl)nc(-c5cccs5)c4n3)cc2)CC1 [Example 122, 6-(2-chlorophenyl)-2-{[4-(4-isopropylpiperazin-1-yl)phenyl]amino}-8-(2-thienyl)pyrimido[4,5-d]pyridazin-5(6H)-one]"
4,2,"CN1Cc2cc(Nc3ncc4c(=O)n(-c5ccccc5Cl)nc(-c5cccs5)c4n3)ccc2C2(CC2)C1 [Example 123, 6-(2-chlorophenyl)-2-[(2′-methyl-2′,3′-dihydro-1′H-spiro[cyclopropane-1,4′-isoquinolin]-7′-yl)amino]-8-(2-thienyl)pyrimido[4,5-d]pyridazin-5(6H)-one]"
5,75,"C=CCn1nc(-c2cccs2)c2nc(Nc3ccc(N4CCCC4=O)cc3)ncc2c1=O [Example 124, 6-allyl-2-{[4-(2-oxopyrrolidin-1-yl)phenyl]amino}-8-(2-thienyl)pyrimido[4,5-d]pyridazin-5(6H)-one]"
6,> 3140,"C=CCn1nc(-c2cccs2)c2nc(Nc3ccc(S(=O)(=O)N4CCOCC4)cc3)ncc2c1=O [Example 125, 6-allyl-2-{[4-(morpholin-4-ylsulfonyl)phenyl]amino}-8-(2-thienyl)pyrimido[4,5-d]pyridazin-5(6H)-one]"
7,6,"C=CCn1nc(-c2cccs2)c2nc(Nc3ccc(N4CCN(C(C)C)CC4)cc3)ncc2c1=O [Example 126, 6-allyl-2-{[4-(4-isopropylpiperazin-1-yl)phenyl]amino}-8-(2-thienyl)pyrimido[4,5-d]pyridazin-5(6H)-one]"
8,4,"C=CCn1nc(-c2cccs2)c2nc(Nc3ccc(N4CCN(C(C)C)CC4)c(C)c3)ncc2c1=O [Example 127, 6-allyl-2-{[4-(4-isopropylpiperazin-1-yl)-3-methylphenyl]amino}-8-(2-thienyl)pyrimido[4,5-d]pyridazin-5(6H)-one]"
9,6,"Cc1ccccc1-n1nc(-c2cccs2)c2nc(Nc3ccc(N4CCCC4=O)cc3)ncc2c1=O [Example 128, 6-(2-methylphenyl)-2-{[4-(2-oxopyrrolidin-1-yl)phenyl]amino}-8-(2-thienyl)pyrimido[4,5-d]pyridazin-5(6H)-one]"
10,> 3140,"Cc1ccccc1-n1nc(-c2cccs2)c2nc(Nc3ccc(S(=O)(=O)N4CCOCC4)cc3)ncc2c1=O [Example 129, 6-(2-methylphenyl)-2-{[4-(morpholin-4-ylsulfonyl)phenyl]amino}-8-(2-thienyl)pyrimido[4,5-d]pyridazin-5(6H)-one]"
11,0.4,"Cc1ccccc1-n1nc(-c2cccs2)c2nc(Nc3ccc4c(c3)CN(C)CC43CC3)ncc2c1=O [Example 130, 2-[(2′-methyl-2′,3′-dihydro-1′H-spiro[cyclopropane-1,4′-isoquinolin]-7′-yl)amino]-6-(2-methylphenyl)-8-(2-thienyl)pyrimido[4,5-d]pyridazin-5(6H)-one]"
12,0.5,"CC(C)N1CCN(c2ccc(Nc3ncc4c(=O)n(-c5ccccc5Cl)nc(-c5ccccc5)c4n3)cc2)CC1 [Example 131, 6-(2-chlorophenyl)-2-{[4-(4-isopropylpiperazin-1-yl)phenyl]amino}-8-phenylpyrimido[4,5-d]pyridazin-5(6H)-one]"
13,0.7,"COc1cc(Nc2ncc3c(=O)n(-c4ccccc4C)nc(-c4cccs4)c3n2)ccc1N1CCN(C(C)C)CC1 [Example 132, 2-{[4-(4-isopropylpiperazin-1-yl)-3-methoxyphenyl]amino}-6-(2-methylphenyl)-8-(2-thienyl)pyrimido[4,5-d]pyridazin-5(6H)-one]"
14,3,"Cc1cc(Nc2ncc3c(=O)n(-c4ccccc4C)nc(-c4ccco4)c3n2)ccc1N1CCN(C(C)C)CC1 [Example 133, 8-(2-furyl)-2-{[4-(4-isopropylpiperazin-1-yl)-3-methylphenyl]amino}-6-(2-methylphenyl)pyrimido[4,5-d]pyridazin-5(6H)-one]"
15,0.6,"Cc1ccccc1-n1nc(-c2ccccc2)c2nc(Nc3ccc(N4CCN(C(C)C)CC4)cc3)ncc2c1=O [Example 134, 2-{[4-(4-isopropylpiperazin-1-yl)phenyl]amino}-6-(2-methylphenyl)-8-phenylpyrimido[4,5-d]pyridazin-5(6H)-one]"
